# Where two headings read alike, the source gives them in different places.
# Assays:
# [1] = system: rat jejunum; test: In vitro macromolecule permeation of rat jejunum sections with/without electrical stimulation and L-NAME (FIG. 37); assay type: in vitro ADME
# Experimental: Reference is now made to FIG. 37, which is a graph showing in vitro measurements of macromolecule permeation, measured in accordance with an embodiment of the present invention. Several sections of rat jejunum were prepared, and the permeation of the sections to Leuprolide and Octreotide peptides was measured with and without electrical stimulation, and with and without application of 1 mM N^G-Nitro-L-Arginine methyl ester (L-NAME), a non-specific nitric oxide (NO) synthase (NOS) inhibitor. The electrical stimulation included the following parameters: 18 Hz, 1 ms pulses, and 5 mA (corresponding to a voltage of about 2 V).
# [2] = system: proabsorptive effect of NO; details: addition of NOS inhibitors; cited from earlier work
# [3] = system: mouse ileum; details: addition of NO donors to mouse ileum; cited from earlier work
# [4] = system: rat intestine; details: all regions of the rat intestine; cited from earlier work
# [5] = system: distal ileum tissue; test: Octreotide permeation via distal ileum tissue in diffusion chamber 500 with LITV pulses (FIG. 36); assay type: in vitro ADME, Wistar rat; details: 18 Hz, 3 mA, 1 millisecond vs control, at 7 minutes (FIG. 36)
# Experimental: (§1) Reference is now made to FIG. 26, which is a schematic cross-sectional illustration of an experimental diffusion chamber 500, and FIGS. 27-36, which are graphs showing in vitro experimental results generated in accordance with respective embodiments of the present invention. A number of 300 g Wistar rats were anaesthetized using Ketamine (100 mg/kg) and Xylazine (10 mg/kg). Two 3 cm-long sections 510 of the intestine were removed from each rat and opened along the mesenterial line so that two rectangular pieces of tissue were available from each rat (a single tissue section 510 is shown in FIG. 26). For the experiments described hereinbelow with reference to FIGS. 27-35, the intestinal sections were taken from the upper jejunum, while for the experiment described hereinbelow with reference to FIG. 36, the intestinal sections were taken from the upper jejunum, proximal ileum, and distal ileum. The serosal and muscular layers of the intestinal sections were removed using a microscope cover glass. […]
# (§2) In each of the experiments described hereinbelow with reference to FIGS. 27-36, beginning upon replacement of the HBSS in donor cell 520 with octreotide, a train of LITV pulses was applied through electrodes 530, and the permeation of octreotide from donor cell 520 to acceptor cell 522 via tissue segment 510 was measured. […]
# [6] = system: jejunal tissue; test: Octreotide permeation via jejunal tissue in diffusion chamber 500 with LITV pulses (FIGS. 27-36); assay type: in vitro ADME, Wistar rat; details: for permeation efficiency, effect of pulse cycle: 1 millisecond (FIG. 31); for octreotide permeation vs control group: 3 mA (FIG. 29); for permeation efficiency, effect of electrode material: 1 millisecond (FIG. 34)
# Experimental: Reference is now made to FIG. 26, which is a schematic cross-sectional illustration of an experimental diffusion chamber 500, and FIGS. 27-36, which are graphs showing in vitro experimental results generated in accordance with respective embodiments of the present invention. A number of 300 g Wistar rats were anaesthetized using Ketamine (100 mg/kg) and Xylazine (10 mg/kg). Two 3 cm-long sections 510 of the intestine were removed from each rat and opened along the mesenterial line so that two rectangular pieces of tissue were available from each rat (a single tissue section 510 is shown in FIG. 26). For the experiments described hereinbelow with reference to FIGS. 27-35, the intestinal sections were taken from the upper jejunum, while for the experiment described hereinbelow with reference to FIG. 36, the intestinal sections were taken from the upper jejunum, proximal ileum, and distal ileum. The serosal and muscular layers of the intestinal sections were removed using a microscope cover glass. Each of the intestinal tissue segments was placed on a slide and inserted into diffusion chamber 500.
# Diffusion chamber 500 is shaped so as to define a donor cell 520 and an acceptor cell 522, connected by a 28 mm×8 mm window 524. Tissue segment 510 on the slide completely covered window 524. Tissue segment 510 was placed so as to completely cover window 524, thereby separating donor cell 520 and acceptor cell 522. Tissue segment 510 was oriented such that the mucosal side thereof faced donor cell 520, and the serosal side thereof faced acceptor cell 522. Donor cell 520 was filled with 15 ml of Hank's Balanced Salt Solution (HBSS) adjusted to a pH of 7.4 (in mM: 136.9 NaCl, 5.4 KCl, 0.5 MgCl2, 0.4 MgSO4, 4.5 KH2PO4, 0.35 Na2HPO4, 1.0 CaCl2, 4.2 NaHCO3, 5.5 D-Glucose). Acceptor cell 522 was filled with D-Glucose-supplemented Phosphate Buffered Saline (PBS) adjusted to a pH of 7.4 (in mM: 136.9 NaCl, 2.7 KCl, 0.5 MgCl2, 1.5 KH2PO4, 8.1 Na2HPO4, 0.7 CaCl2, 5.5 D-Glucose).
# After tissue segment 510 was placed over window 524, the donor cell was divided into two separate compartments 526a and 526b by an electrically-insulating divider 528 positioned to slightly touch tissue segment 510 so that fluid passage between compartments 526a and 526b was slow (if not impossible). (Donor cell 520 was not divided into compartments 526a and 526b in the experiment described hereinbelow with reference to FIG. 33.) The solution was maintained at 37° C. and gassed with 95% O2/5% CO2, supplied via 1 mm ID tubes placed at the bottom of each cell (tubes not shown in FIG. 26).
# A single square electrode 530 was placed in each of compartments 526a and 526b of donor cell 520, such that an electrode surface 532 of each electrode was parallel to the surface of tissue segment 510, at a 0.5 mm distance from tissue segment 510 (except for the experiment described hereinbelow with reference to FIG. 32). Electrodes 530 comprised stainless steel (SS316L, 6 mm×6 min) (except for the experiment described hereinbelow with reference to FIG. 34). The distance between the centers of electrode surfaces 532 was 10 mm. After tissue segment 510 was in position over window 524 for 30 minutes, the HBSS in donor cell 520 was replaced with 1 mg/ml octreotide acetate (Sandostatin) containing HBSS.
# In each of the experiments described hereinbelow with reference to FIGS. 27-36, beginning upon replacement of the HBSS in donor cell 520 with octreotide, a train of LITV pulses was applied through electrodes 530, and the permeation of octreotide from donor cell 520 to acceptor cell 522 via tissue segment 510 was measured. This train of monophasic rectangular pulses was generated using a Thurlby Thandar Instruments TGP110 pulse generator. The voltage output of the pulse generator was adjusted so that a 3 mA current flowed through the electrodes. An EZ Digital Co. DM330 Digital Multimeter, connected serially to the electrodes, was used to measure current. […]
# [7] = system: upper jejunum tissue segments; test: Octreotide permeation via rat upper jejunum tissue segment in diffusion chamber, with or without LITV pulses (FIG. 24); assay type: in vitro ADME, Wistar rat; details: LITV pulses 12 Hz, 1 millisecond, 3 mA vs control without stimulation; 1 mg/ml octreotide acetate, 90-minute period
# Experimental: Reference is now made to FIG. 24, which is a graph showing in vitro experimental results measured in accordance with an embodiment of the present invention. A 300 g Wistar rat was anaesthetized using Ketamine (100 mg/kg) and Xylazine (10 mg/kg). Two 3 cm-long sections of the upper jejunum were removed and opened along the lumen so that two rectangular pieces of tissue were available. The serosal and muscular layers were removed using a microscope cover glass. The intestinal tissue segments were placed on slides and inserted into diffusion chambers similar to experimental diffusion chamber 500, described hereinbelow with reference to FIG. 26. […] The tissue segments on the slides completely covered the windows between the donor and acceptor cells. The cells were filled with 15 ml of Hank's Balanced Salt Solution (HBSS) (pH 7.4). The donor cells were then divided into two separate sections with a dividing board slightly touching the tissue so that fluid passage between the two parts of each donor cell was slow (if not impossible). […]
# In one of the diffusion chambers (which served as a control), permeation of octreotide via the tissue segment was measured without the application of electrical stimulation. […] The samples were analyzed by HPLC-UV 205 nm spectroscopy (Hewlett-Packard 1100, acetonitril: phosphate buffer (pH 7.4) (40:60), C18 column) for their content of octreotide.
# [8] = system: proximal ileum tissue; test: Octreotide permeation via proximal ileum tissue in diffusion chamber 500 with LITV pulses (FIG. 36); assay type: in vitro ADME, Wistar rat; details: 18 Hz, 3 mA, 1 millisecond vs control, at 7 minutes (FIG. 36)
# Experimental: as §1, §2
# [9] = system: electrically-induced NO synthesis and release; details: NO synthase inhibitor added; cited from earlier work
compound,measurement,setting,value
"COC(=O)[C@@H](N)CCCNC(=N)N[N+](=O)[O-] [L-NAME, N^G-Nitro-L-Arginine methyl ester]",effect of NOS inhibition on peptide permeation vs non-NOS-inhibited groups,"[1]; 1 mM L-NAME, with and without stimulation",substantially less
same,proabsorptive effect of NO,[2],significantly reduced
"CC(=O)N[C@H](C(=O)O)C(C)(C)SN=O [SNAP, S-nitroso-acetyl-penicillamine]",transepithelial electrical resistance,[3],decrease in transepithelial electrical resistance
CC(C)N(CCCN)/[N+]([O-])=N/O [NOC5],absorption of macromolecules,[4],improve absorption of macromolecules
"C[C@@H](O)[C@@H]1NC(=O)[C@H](CCCCN)NC(=O)[C@@H](Cc2c[nH]c3ccccc23)NC(=O)[C@H](Cc2ccccc2)NC(=O)[C@@H](NC(=O)[C@H](N)Cc2ccccc2)CSSC[C@@H](C(=O)N[C@H](CO)[C@@H](C)O)NC1=O [octreotide, octreotide acetate]",permeation of the peptides,"[1]; NOS-inhibited (1 mM L-NAME) non-stimulation group, after 45 minutes",about 0.45 ug/ml
same,permeation of the peptides,"[1]; NOS-inhibited (1 mM L-NAME) stimulation group (18 Hz, 1 ms, 5 mA), after 45 minutes",about 0.45 ug/ml
same,permeation of the peptides,"[1]; non-NOS-inhibited electrical stimulation group (18 Hz, 1 ms, 5 mA), after 45 minutes",about 1.45 ug/ml
same,penetration of the peptides,"[1]; non-stimulation, non-NOS-inhibited control group, after 45 minutes",about 0.6 ug/ml
same,permeation efficiency in different regions of the intestine,[5],positive but less pronounced effect
same,"magnitude of permeation efficiency, effect of electrode distance from jejunal tissue","[6]; 0.5 mm vs 3 mm, 18 Hz, 3 mA, 1 millisecond, at 15 minutes (FIG. 32)",greater at 0.5 mm than at 3 mm
same,"permeation efficiency, effect of pulse cycle","[6]; 1 pulse per cycle, 18 Hz, 3 mA",greatest permeation efficiency
same,"enhancement ratio, effect of pulse frequency","[6]; 18 Hz among 5-60 Hz tested, 1 millisecond, 3 mA, at 30 minutes (FIG. 28)",greatest enhancement ratio
same,"permeation efficiency, effect of cessation of pulse application","[6]; continuous application vs cessation after 10 minutes, 18 Hz, 3 mA, 1 millisecond (FIG. 35)",substantially greater permeation efficiency
same,"permeation efficiency, effect of electrode insulation","[6]; electrodes not insulated from each other (without divider 528), 18 Hz, 3 mA, 1 millisecond (FIG. 33)",did not increase permeation efficiency
same,"permeation efficiency, effect of pulse cycle","[6]; increasing number of pulses per cycle (2, 3), 18 Hz, 3 mA",the permeation efficiency decreased
same,permeation efficiency in different regions of the intestine,"[6]; jejunal tissue, 18 Hz, 3 mA, 1 millisecond vs control, at 7 minutes (FIG. 36)",greatest effect of pulse application
same,"enhancement ratio, effect of pulse duration","[6]; pulse duration 1 millisecond among 0.2-3 milliseconds tested, 18 Hz, 3 mA, at 15 minutes (FIG. 30)",greatest enhancement ratio
same,octreotide permeation (permeation efficiency),"[6]; pulses 1 millisecond, 18 Hz, 3 mA vs non-stimulated control group (FIG. 27)",substantially enhanced octreotide permeation
same,octreotide permeation vs control group,"[6]; pulses at 5 Hz, 1 millisecond",did not yield a higher octreotide permeation
same,octreotide permeation vs control group,"[6]; pulses at 60 Hz, 1 millisecond",did not yield a higher octreotide permeation
same,"permeation efficiency, effect of electrode material","[6]; silver chloride electrodes, 18 Hz, 3 mA",did not increase permeation efficiency
same,"permeation efficiency, effect of electrode material","[6]; stainless steel (SS316L) electrodes, 18 Hz, 3 mA",substantially increased permeation efficiency
same,"permeation efficiency, effect of electrode material","[6]; titanium nitride electrodes, 18 Hz, 3 mA",did not increase permeation efficiency
same,octreotide permeation into acceptor cell,[7],substantially greater increase in octreotide permeation
same,permeation efficiency in different regions of the intestine,[8],increased permeation efficiency
"N=C(NCCC[C@H](N)C(=O)O)N[N+](=O)[O-] [L-NNA, N^G-nitro-L-arginine]",proabsorptive effect of NO,[2],significantly reduced
same,electrically-induced NO synthesis and release,[9],almost entirely prevented
"CNC(=N)NCCC[C@H](N)C(=O)O [L-NMA, N^G-methyl-L-arginine]",proabsorptive effect of NO,[2],significantly reduced
CNCCCN(C)/[N+]([O-])=N/O [NOC7],absorption of macromolecules,[4],improve absorption of macromolecules
CCNCCN(CC)/[N+]([O-])=N/O [NOC12],absorption of macromolecules,[4],improve absorption of macromolecules
CCNC(=O)[C@@H]1CCCN1C(=O)[C@H](CCCNC(=N)N)NC(=O)[C@H](CC(C)C)NC(=O)[C@@H](CC(C)C)NC(=O)[C@H](Cc1ccc(O)cc1)NC(=O)[C@H](CO)NC(=O)[C@H](Cc1c[nH]c2ccccc12)NC(=O)[C@H](Cc1c[nH]cn1)NC(=O)[C@@H]1CCC(=O)N1 [Leuprolide],penetration of the peptides,[1],about 0.6 ug/ml
